Source: patent US20260365670A1, “EGFR INHIBITORS AND USES THEREOF” (DIZAL (JIANGSU) PHARMACEUTICAL CO., LTD., priority 2022, published 2026)
Where two headings read alike, the source gives them in different places.

Assays:
[1] = target: T1, EGFR Exon19Del (Homo sapiens, UniProt P00533, DEL746-750); assay: Inhibition of EGFR Exon19Del biochemical enzymatic activity (HTRF); conditions: read-out: IC50 @Del19
T1 construct: purchased Carna Bio
How it was run: (§1)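 For IC50 determination by four-parameter logistic fit, EDTA-quenched 1 h room-temperature reactions (1 mM ATP, 1 μM TK Substrate-biotin) were read by HTRF. The 665/615 nm emission ratio after 320 nm excitation served as the activity signal.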

[2] = target: T2, EGFR Exon19Del/T790M (Homo sapiens, UniProt P00533, DEL746-750/T790M); assay: Inhibition of EGFR Exon19Del/T790M biochemical enzymatic activity (HTRF); conditions: 1 mM ATP
T2 construct: purchased Carna Bio
How it was run: as §1

[3] = target: T3, EGFR[T790M/C797S/d746-750] (Homo sapiens, UniProt P00533, C797S/DEL746-750/T790M); assay: Inhibition of EGFR[T790M/C797S/d746-750] biochemical enzymatic activity (HTRF)
T3 construct: purchased Carna Bio
How it was run: as §1

[4] = test system: Ba/F3 cells expressing EGFR mutations; assay: Cell proliferation assay, Ba/F3 cells expressing EGFR mutations (CellTiter-Glo, 72 hours); assay type: cell-based
How it was run: (§2)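 Ba/F3 cells carrying EGFR mutants (5000/well) or PC-9 cells (500/well) in RPMI1640 were dosed with compound series after overnight attachment and grown 72 h. Viability read by CellTiter-Glo, with day-0 counts subtracted; GI50 from curve fits of % proliferation versus DMSO control.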

[5] = target: T4, EGFR L858R/T790M (Homo sapiens, UniProt P00533, L858R/T790M); assay: Inhibition of EGFR L858R/T790M biochemical enzymatic activity (HTRF); conditions: 1 mM ATP
T4 construct: purchased Carna Bio
How it was run: as §1

[6] = target: T5, EGFR wild type (Homo sapiens, UniProt P00533); assay: Inhibition of EGFR wild type biochemical enzymatic activity (HTRF); conditions: 1 mM ATP
T5 construct: purchased Carna Bio
How it was run: as §1

[7] = target: T6, EGFR[T790M/C797S/L858R] (Homo sapiens, UniProt P00533, C797S/L858R/T790M); assay: Inhibition of EGFR[T790M/C797S/L858R] biochemical enzymatic activity (HTRF); conditions: 1 mM ATP
T6 construct: purchased Carna Bio
How it was run: as §1

[8] = test system: PC-9; assay: Cell proliferation assay, PC-9 cells (CellTiter-Glo, 72 hours); assay type: cell-based; conditions: PC9 cells, read-out: GI50 PC9
How it was run: as §2

[9] = target: T7, EGFR (C797S L858R) (Homo sapiens, UniProt P00533, C797S/L858R); assay: Inhibition of EGFR (C797S L858R) biochemical enzymatic activity (HTRF); conditions: 1 mM ATP
T7 construct: purchased signalchem
How it was run: as §1

[10] = target: T8, EGFR (d746-750 C797S) (Homo sapiens, UniProt P00533, C797S/DEL746-750); assay: Inhibition of EGFR (d746-750 C797S) biochemical enzymatic activity (HTRF); conditions: 1 mM ATP
T8 construct: purchased signalchem
How it was run: as §1

[11] = target: T9, EGFR L858R (Homo sapiens, UniProt P00533, L858R); assay: Inhibition of EGFR L858R biochemical enzymatic activity (HTRF); conditions: 1 mM ATP
T9 construct: purchased Carna Bio
How it was run: as §1

[12] = test system: A-431; assay: Cell proliferation assay, A-431 cells (GI50, Table 6); assay type: cell-based
[13] = Mus musculus, BaF3, 72 h, BaF3 cells, EGFR DEL19 - C797S, read-out: GI50 DEL19 - C797S/BaF3
[14] = Mus musculus, BaF3, 72 h, BaF3 cells, EGFR DEL19 - T790-C797S, read-out: GI50 DEL19 - T790-C797S/BaF3
[15] = Mus musculus, BaF3, 72 h, BaF3 cells, EGFR L858R - C797S, read-out: GI50 L858R - C797S/BaF3
[16] = Mus musculus, BaF3, 72 h, BaF3 cells, EGFR L858R - T790-C797S, read-out: GI50 L858R - T790-C797S/BaF3
[17] = Mus musculus, BaF3, 72 h, BaF3 cells, EGFR L858R - T790M, read-out: GI50 L858R - T790M/BaF3
[18] = Mus musculus, BaF3, 72 h, BaF3 cells, EGFR L858R, read-out: GI50 L858R/BaF3
[19] = Mus musculus, BaF3, 72 h, EGFR DEL19 - T790M, read-out: GI50 DEL19 - T790M
[20] = Homo sapiens, A-431, A-431 cells
[21] = EGFR Exon19Del, 1 mM ATP, 1 h at room temperature
[22] = EGFR Exon19Del/T790M, 1 h at room temperature, read-out: IC50 @Del19-T790M
[23] = EGFR[T790M/C797S/d746-750], 1 mM ATP, 1 h at room temperature, read-out: IC50 @T790M - C797S - Del19
[24] = EGFR L858R/T790M, 1 h at room temperature, read-out: IC50 @L858R-T790M
[25] = EGFR wild type, 1 h at room temperature, read-out: IC50 @WT
[26] = EGFR[T790M/C797S/L858R], 1 h at room temperature, read-out: IC50 @T790M- C797S - L858R
[27] = EGFR (C797S L858R), 1 h at room temperature, read-out: IC50 @L858-C797S
[28] = EGFR (d746-750 C797S), 1 h at room temperature, read-out: IC50 @Del19-C797S
[29] = 1 h at room temperature, read-out: IC50 @L858R
[30] = BaF3 cells, EGFR DEL19 - C797S, read-out: GI50 DEL19 - C797S/BaF3
[31] = BaF3 cells, EGFR DEL19 - T790-C797S, read-out: GI50 DEL19 - T790-C797S/BaF3
[32] = BaF3 cells, EGFR L858R - C797S, read-out: GI50 L858R - C797S/BaF3
[33] = BaF3 cells, EGFR L858R - T790-C797S, read-out: GI50 L858R - T790-C797S/BaF3
[34] = BaF3 cells, EGFR L858R - T790M, read-out: GI50 L858R - T790M/BaF3
[35] = BaF3 cells, EGFR L858R, read-out: GI50 L858R/BaF3
[36] = EGFR DEL19 - T790M, read-out: GI50 DEL19 - T790M

T1 sequence (P00533 with tags, fused parts or gaps DEL746-750 limits assumed): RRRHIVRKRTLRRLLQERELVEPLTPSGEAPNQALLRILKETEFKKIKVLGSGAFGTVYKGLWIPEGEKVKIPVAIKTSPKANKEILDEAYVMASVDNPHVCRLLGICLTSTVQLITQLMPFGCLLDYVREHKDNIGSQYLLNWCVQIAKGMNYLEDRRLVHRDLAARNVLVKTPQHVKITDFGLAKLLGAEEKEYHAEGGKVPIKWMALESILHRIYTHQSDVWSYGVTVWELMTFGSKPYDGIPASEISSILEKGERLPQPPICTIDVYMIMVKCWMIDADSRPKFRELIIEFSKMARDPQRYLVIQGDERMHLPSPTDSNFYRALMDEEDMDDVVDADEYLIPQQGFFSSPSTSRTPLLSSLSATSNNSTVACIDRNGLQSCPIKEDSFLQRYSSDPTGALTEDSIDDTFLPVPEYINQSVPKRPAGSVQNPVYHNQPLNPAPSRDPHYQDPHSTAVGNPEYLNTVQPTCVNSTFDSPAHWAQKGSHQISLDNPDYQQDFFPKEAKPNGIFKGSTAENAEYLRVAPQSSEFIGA
T6 sequence (P00533 25-1210 T790M/C797S/L858R): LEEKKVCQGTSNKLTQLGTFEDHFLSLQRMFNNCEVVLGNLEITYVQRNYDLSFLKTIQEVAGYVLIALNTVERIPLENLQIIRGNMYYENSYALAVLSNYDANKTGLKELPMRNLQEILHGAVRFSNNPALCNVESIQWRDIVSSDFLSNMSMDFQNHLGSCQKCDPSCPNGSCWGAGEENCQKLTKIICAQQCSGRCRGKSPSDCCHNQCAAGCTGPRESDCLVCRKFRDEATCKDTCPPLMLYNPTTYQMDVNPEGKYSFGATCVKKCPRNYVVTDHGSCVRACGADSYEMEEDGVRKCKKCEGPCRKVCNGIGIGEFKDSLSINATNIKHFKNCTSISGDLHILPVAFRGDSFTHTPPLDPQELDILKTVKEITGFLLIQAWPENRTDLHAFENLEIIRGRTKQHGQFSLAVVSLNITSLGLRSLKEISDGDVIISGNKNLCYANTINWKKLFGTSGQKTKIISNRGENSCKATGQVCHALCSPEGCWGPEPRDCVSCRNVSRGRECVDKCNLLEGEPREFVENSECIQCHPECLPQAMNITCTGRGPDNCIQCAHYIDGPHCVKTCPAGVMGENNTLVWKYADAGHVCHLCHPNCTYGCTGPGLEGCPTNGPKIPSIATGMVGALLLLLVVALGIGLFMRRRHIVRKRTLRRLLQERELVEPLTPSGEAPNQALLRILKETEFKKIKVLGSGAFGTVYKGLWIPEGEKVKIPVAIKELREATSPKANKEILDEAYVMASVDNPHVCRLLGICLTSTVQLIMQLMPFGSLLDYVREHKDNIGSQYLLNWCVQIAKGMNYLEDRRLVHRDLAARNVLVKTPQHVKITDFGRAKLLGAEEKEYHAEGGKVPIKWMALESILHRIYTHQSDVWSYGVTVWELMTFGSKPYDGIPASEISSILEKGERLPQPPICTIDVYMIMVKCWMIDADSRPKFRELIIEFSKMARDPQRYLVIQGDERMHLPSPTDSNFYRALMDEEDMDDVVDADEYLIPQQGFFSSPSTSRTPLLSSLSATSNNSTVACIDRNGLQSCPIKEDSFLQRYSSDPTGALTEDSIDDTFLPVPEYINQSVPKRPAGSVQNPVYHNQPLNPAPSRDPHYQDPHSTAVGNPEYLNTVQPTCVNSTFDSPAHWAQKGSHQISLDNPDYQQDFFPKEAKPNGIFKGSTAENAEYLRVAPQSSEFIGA
T8 sequence (P00533 with tags, fused parts or gaps DEL746-750/C797S limits assumed): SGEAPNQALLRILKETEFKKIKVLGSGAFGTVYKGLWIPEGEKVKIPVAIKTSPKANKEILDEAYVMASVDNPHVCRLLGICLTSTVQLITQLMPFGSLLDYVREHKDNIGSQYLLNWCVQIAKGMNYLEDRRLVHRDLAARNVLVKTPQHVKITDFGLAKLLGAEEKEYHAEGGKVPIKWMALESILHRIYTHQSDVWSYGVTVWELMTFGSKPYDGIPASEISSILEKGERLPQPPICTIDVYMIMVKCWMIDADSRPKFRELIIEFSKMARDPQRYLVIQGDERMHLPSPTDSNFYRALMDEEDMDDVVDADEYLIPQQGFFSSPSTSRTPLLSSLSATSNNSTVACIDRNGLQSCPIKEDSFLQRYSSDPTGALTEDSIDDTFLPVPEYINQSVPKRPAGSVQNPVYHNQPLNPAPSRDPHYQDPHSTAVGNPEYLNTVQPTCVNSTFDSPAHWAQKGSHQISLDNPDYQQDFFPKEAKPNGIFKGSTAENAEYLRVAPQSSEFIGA
T3 sequence (P00533 with tags, fused parts or gaps DEL746-750/T790M/C797S limits assumed): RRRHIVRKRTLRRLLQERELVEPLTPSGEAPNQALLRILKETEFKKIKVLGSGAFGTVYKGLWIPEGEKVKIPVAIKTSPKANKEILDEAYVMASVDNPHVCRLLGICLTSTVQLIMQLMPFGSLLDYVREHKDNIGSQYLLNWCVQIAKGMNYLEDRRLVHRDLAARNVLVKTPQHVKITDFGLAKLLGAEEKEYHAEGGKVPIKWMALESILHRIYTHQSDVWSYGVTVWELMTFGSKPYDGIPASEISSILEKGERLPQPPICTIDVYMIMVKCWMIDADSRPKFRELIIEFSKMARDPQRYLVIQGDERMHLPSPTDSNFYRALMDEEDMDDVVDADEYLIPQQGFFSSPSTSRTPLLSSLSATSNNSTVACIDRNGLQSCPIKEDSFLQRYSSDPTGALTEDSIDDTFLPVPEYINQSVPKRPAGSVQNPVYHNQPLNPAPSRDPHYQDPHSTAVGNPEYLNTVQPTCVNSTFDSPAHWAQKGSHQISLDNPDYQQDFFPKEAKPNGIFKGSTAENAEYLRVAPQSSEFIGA
T2 sequence (P00533 with tags, fused parts or gaps DEL746-750/T790M limits assumed): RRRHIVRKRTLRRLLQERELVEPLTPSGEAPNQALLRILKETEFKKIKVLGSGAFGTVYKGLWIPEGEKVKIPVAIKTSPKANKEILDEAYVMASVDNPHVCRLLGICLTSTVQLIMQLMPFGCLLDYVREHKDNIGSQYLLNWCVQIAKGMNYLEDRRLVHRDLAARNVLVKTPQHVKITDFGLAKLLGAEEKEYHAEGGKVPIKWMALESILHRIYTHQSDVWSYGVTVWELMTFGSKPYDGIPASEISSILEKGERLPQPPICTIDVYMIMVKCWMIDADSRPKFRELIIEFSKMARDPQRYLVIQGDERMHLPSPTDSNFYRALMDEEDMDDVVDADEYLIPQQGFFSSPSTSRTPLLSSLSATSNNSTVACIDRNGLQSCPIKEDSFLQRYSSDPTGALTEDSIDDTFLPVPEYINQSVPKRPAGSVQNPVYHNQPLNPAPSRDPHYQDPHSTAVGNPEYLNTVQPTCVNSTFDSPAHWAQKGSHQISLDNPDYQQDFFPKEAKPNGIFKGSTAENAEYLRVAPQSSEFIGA
T4 sequence (P00533 25-1210 T790M/L858R): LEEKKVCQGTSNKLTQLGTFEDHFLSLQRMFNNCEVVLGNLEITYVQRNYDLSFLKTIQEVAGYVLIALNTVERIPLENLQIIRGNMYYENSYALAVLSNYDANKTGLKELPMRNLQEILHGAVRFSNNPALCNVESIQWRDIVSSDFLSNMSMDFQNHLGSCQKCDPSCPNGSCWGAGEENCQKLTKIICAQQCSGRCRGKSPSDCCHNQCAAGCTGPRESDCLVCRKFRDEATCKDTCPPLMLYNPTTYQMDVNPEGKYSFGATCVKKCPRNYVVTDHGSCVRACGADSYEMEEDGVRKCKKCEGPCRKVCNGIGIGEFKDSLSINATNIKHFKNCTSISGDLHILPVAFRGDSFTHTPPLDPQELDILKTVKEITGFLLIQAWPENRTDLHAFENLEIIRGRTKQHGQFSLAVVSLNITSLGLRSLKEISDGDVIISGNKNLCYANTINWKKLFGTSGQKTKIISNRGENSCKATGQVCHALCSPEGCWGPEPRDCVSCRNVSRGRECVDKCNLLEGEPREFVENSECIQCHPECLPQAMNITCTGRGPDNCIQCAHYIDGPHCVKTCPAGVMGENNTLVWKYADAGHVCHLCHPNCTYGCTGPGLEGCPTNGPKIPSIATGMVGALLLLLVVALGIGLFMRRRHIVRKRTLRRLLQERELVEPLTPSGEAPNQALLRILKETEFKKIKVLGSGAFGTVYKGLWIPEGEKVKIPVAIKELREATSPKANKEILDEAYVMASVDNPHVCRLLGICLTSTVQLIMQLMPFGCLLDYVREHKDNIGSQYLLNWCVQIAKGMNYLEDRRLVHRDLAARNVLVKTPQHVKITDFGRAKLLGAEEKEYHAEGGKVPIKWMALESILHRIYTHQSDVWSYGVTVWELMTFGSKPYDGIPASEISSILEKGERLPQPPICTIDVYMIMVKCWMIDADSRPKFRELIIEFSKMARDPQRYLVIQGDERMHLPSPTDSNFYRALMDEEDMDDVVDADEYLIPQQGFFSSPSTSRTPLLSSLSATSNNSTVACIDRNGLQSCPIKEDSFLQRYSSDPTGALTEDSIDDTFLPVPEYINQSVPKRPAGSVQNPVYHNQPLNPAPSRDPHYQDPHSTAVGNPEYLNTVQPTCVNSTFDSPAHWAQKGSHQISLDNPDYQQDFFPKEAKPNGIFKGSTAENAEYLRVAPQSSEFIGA

GI50 [4, 13] [nM] | GI50 [4, 14] [nM] | GI50 [4, 15] [nM] | GI50 [4, 16] [nM] | GI50 [4, 17] [nM] | GI50 [4, 18] [nM] | GI50 [4, 19] [nM] | GI50 ([8]; Homo sapiens, PC-9, 72 h) [nM] | GI50 [12, 20] [nM] | IC50 [1, 21] [nM] | IC50 [2, 22] [nM] | IC50 [3, 23] [nM] | IC50 [5, 24] [nM] | IC50 [6, 25] [nM] | IC50 [7, 26] [nM] | IC50 [9, 27] [nM] | IC50 [10, 28] [nM] | IC50 [11, 29] [nM] | GI50 [4, 30] [nM] | GI50 [4, 31] [nM] | Compound | also measured
1.7 | 15 | 23 | 27 | 34 | 21 | 16 | 15 | 489 | – | – | – | – | – | – | – | – | – | – | – | C[C@@H]1CCCOc2ccccc2-c2cc(cn(C)c2=O)C(=O)Nc2nc3ccc(N4CCN(C)CC4)cc3n2C1 [Example A109, (12R)-12,27-dimethyl-17-(4-methylpiperazin-1-yl)-8-oxa-14,21,23,27-tetraazapentacyclo[23.3.1.0^{2,7}.0^{14,22}.0^{15,20}]nonacosa-1(29),2(7),3,5,15,17,19,21,25-nonaene-24,28-dione] | IC50 ([1]; EGFR Del19, 1 mM ATP, 1 h, room temperature): 4.7 nM; IC50 ([2]; EGFR Del19-T790M, 1 h, room temperature, read-out: IC50 (nM) @Del19-T790M): 7.9 nM; IC50 ([3]; EGFR T790M-C797S-Del19, 1 mM ATP, 1 h, room temperature, read-out: IC50 (nM) @T790M - C797S - Del19): 7.6 nM; IC50 ([5]; EGFR L858R-T790M, 1 h, room temperature, read-out: IC50 (nM) @L858R-T790M): 11 nM; IC50 ([6]; EGFR WT, 1 h, room temperature, read-out: IC50 (nM) @WT): 219 nM; IC50 ([7]; EGFR T790M-C797S-L858R, 1 h, room temperature, read-out: IC50 (nM) @T790M- C797S - L858R): 10 nM; IC50 ([9]; EGFR L858-C797S, 1 h, room temperature, read-out: IC50 (nM) @L858-C797S): 9.8 nM; IC50 ([10]; EGFR Del19-C797S, 1 h, room temperature, read-out: IC50 (nM) @Del19-C797S): 3.1 nM; IC50 ([11]; 1 h, room temperature, read-out: IC50 (nM) @L858R): 16 nM
11 | 4 | 83 | 9 | 17 | 64 | 4 | 86 | 4520 | 39 | 12 | 5.4 | 16 | > 5000 | 8.4 | 203 | 20 | 421 | – | – | Cc1cc2cc(n1)-c1cnn(C)c1OCCN1CC3CCC(CC3)(C1)n1c(nc3ccc(N4CC5CN(C)CC5C4)cc31)NC2=O (stereo not drawn) [Example B34] | –
– | – | – | – | – | – | – | – | 257 | 6.1 | 4.3 | 2.6 | 3.7 | 543 | 1.8 | 6 | 2.1 | 31 | 2 | 2 | Cc1cc2cc(n1)-c1cnn(C)c1OCCN1CC3CCC(C3)(C1)n1c(nc3ccc(N4CCN(C(C)C)CC4)cc31)NC2=O (single isomer, unassigned) [Example B57B] | GI50 [4, 32]: 8 nM; GI50 [4, 33]: 2 nM; GI50 [4, 34]: 2 nM; GI50 [4, 35]: 9 nM; GI50 [4, 36]: 2 nM; GI50 [8]: 8 nM
– | – | – | – | – | – | – | – | – | 4.9 | 3.9 | 2.5 | 3.1 | 121 | 1.6 | 3.9 | 2 | 13 | 2 | 2 | Cc1cc2cc(n1)-c1cnn(C)c1OCCN1CC3CCC(C3)(C1)n1c(nc3ccc(N4CCC5(CC4)CCN5C)cc31)NC2=O (single isomer, unassigned) [Example B54B] | GI50 [4, 32]: 2 nM; GI50 [4, 33]: 2 nM; GI50 [4, 34]: 2 nM; GI50 [4, 35]: 2 nM; GI50 [4, 36]: 6 nM; GI50 [8]: 3 nM; GI50 ([12]; A-431 cells): 795 nM
